Read-outs that look alike come from different tables or passages of the source. Where a SMILES comes first, the peptide text is derived from it. Where no end group is shown, it is not given here. The star is where a group is joined. For = O=C*
Columns and labels:
[1] = tested on: undifferentiated HL60 cells; experiment: Intracellular Ca2+ concentration (fura-2), undifferentiated HL60 cells; format: cell-based, human
Procedure: (§1) The differentiated HL60 cells or undifferentiated HL60 cells were washed twice with a Hepes-Na solution (140 mM NaCl, 4 mM KCl, 1 mM NaH2PO4, 1 mM MgCl2, 1.25 mM CaCl2, 5 mM Hepes, 11 mM glucose, 0.2% BSA, pH 7.4). Then, Ca^2+ sensitive fluorescence reagent, fura-2/AM, was added to the cell suspension (4 ml: final concentration, 4 μM). The reaction mixture was then shaken gently at room temperature for 60 minutes, shielded from light in order to incorporate fura-2 into the HL60 cells. Subsequently, the cells were washed twice with a Hepes-Na solution and a cell suspension was prepared at a final cell density of 1.0×10^6 cells/ml. One milliliter of the cell suspension was put into reaction cuvettes and stimulated with various samples under stirring at 30° C. Ratios of fluorescence intensity at 500 nm (F) for an excitation wavelength at 340 nm to that at 380 nm were measured with a fluorimeter (CAF-100, Japan Spectroscopic Co., Ltd.) and [Ca^2+]i was calculated following the formula: [Ca^2+]i(nM)=K×{(F−Fmin)/(Fmax−F)}×A/B, wherein
(§2) Fmax: a ratio of fluorescence intensity at 500 nm for an excitation wavelength at 340 nm to that at 380 nm after all cells were solubilized with 0.1% Triton X-100;
(§3) Fmin: a ratio of fluorescence intensity at 500-nm for an excitation wavelength at 340 nm to that at 380 nm after the whole calcium was chelated with 4 mM EGTA;
(§4) A: fluorescence intensity at 500-nm for an excitation wavelength at 380 nm, when all the calcium was chelated with EGTA;
(§5) B: fluorescence intensity at 500-nm for an excitation wavelength at 380 nm, when all cells were solubilized with Triton X-100;
(§6) K: 224 (nM) (the dissociation constant of fura-2).

[2] = tested on: differentiated HL60 cells; experiment: Intracellular Ca2+ concentration (fura-2), differentiated HL60 cells; format: cell-based, human; conditions: differentiated HL60 cells (+)
Procedure: as §1, §2, §3, §4, §5, §6

[3] = tested on: differentiated HL60 cells; format: cell-based, human; conditions: for activity of promoting β-HA secretion / activity for β-HA secretion compared with COSP-1 and fCyt b (1-15): differentiated HL60 cells; for activity of promoting β-HA secretion: Example 12; for activity for β-HA secretion compared with COSP-1 and fCyt b (1-15): human homologues; for β-HA secretion from differentiated HL60 cells (%/total): total = β-HA released with 0.05% Triton X-100
Procedure: a. Cultivation of HL60 Cells and Induction to the Differentiated Neutrophil-Like Cells For cultivation, heat-inactivated FCS (final concentration; 10%), streptomycin (final concentration; 100 mg/l), penicillin G (final concentration of 10^5 units/l) and RPMI-1640 culture solution containing 10 mM Hepes (pH 7.4) were used. Cells were cultivated at a cell density of 2×10^5-1.5×10^6 cells/ml in a plastic flask (80 cm^2, 260 ml, Nunc) at 37° C. under stationary conditions with a 5% of CO2 concentration and a 100% of humidity. […] c. […] Measuring β-HA Enzyme Activity The amount of β-HA secreted into the reaction supernatant was determined by measuring the absorbance at 415 nm of p-nitrophenol that was generated by an enzymatic reaction involving p-nitrophenyl N-acetyl-β-D-glucosaminide as a substrate. To be specific, 90 μl of the reaction supernatant was transferred to a 96-well Immuno plate (Nunc) and 60 μl of a substrate solution (10 mM p-nitrophenyl N-acetyl-β-D-glucosaminide/40 mM citrate, 70 mM Na2HPO4, pH 4.5) was added to initiate an enzymatic reaction. Following a 1-hr reaction at 37° C., 100 μl of a reaction quencher (400 mM glycine, pH 10.7) was added to stop the reaction and the absorbance at 415 nm was measured. As a control, cells were treated with Triton X-100 at a final concentration of 0.05% and the amount of β-HA in the supernatant was measured. As another control, the amount of β-HA secreted from cells upon stimulation with fMLP at a final concentration of 10 μM was measured.

[4] = tested on: differentiated HL60 cells
Procedure: (§10) The differentiated HL60 cells and human leukocyte cells were washed three times with ice-cooled 0.1% BSA containing Hepes buffered Hank's solution (HBHS; 10 mM Hepes, 136.9 mM NaCl, 5.4 mM KCl, 1.2 mM CaCl2, 0.44 mM KH2PO4, 0.49 mM MgCl2, 0.41 mM MgSO4, 0.34 mM Na2HPO4, 5.5 mM glucose, 4.2 mM NaHCO3, pH 7.4). A cell suspension was prepared for each cell type at 5.5×10^6 cells/ml. Cytochalasin B and DNase I were then added to each cell suspension at a final concentration of 5 μg/ml. Ninety μl of each cell suspension was then transferred to an ice-cooled tube (5.0×10^5 cells/tube) and incubated at 37° C. for 10 minute. To each tube, either one of the fractions of polypeptide (or extract) in solution (10 μl) was added and incubated at 37° C. for 10 minutes to stimulate the cells. Immediately after the treatment, 200 μl of ice-cooled reaction quenching buffer (25 mM Tris, 123 mM NaCl, 2.7 mM KCl, pH 7.4) was added to the cell suspensions to stop the stimulation. Thereafter, the tubes were spun down at 4° C. for 60 seconds to precipitate the cell pellets and the β-HA activity and the lactate dehydrogenase (LDH) activity in the supernatant were measured.
(§11) The amount of LDH secreted into the reaction mixture was determined by measuring the absorbance (340 nm) of NADH generated by reduction of that NAD involves dehydrogenation of lactate. Reaction was initiated by adding a 400 μl of a substrate-buffer solution (125 mM 2-amino-2-methyl-1-propanol, 125 mM lithium lactate, 6.25 mM NAD, pH 9.5) to a 100 μl of the reaction supernatant. Following a 1-hr incubation at 37° C., the mixture was quenched in ice water to stop the reaction and the absorbance at 340 nm was measured.
(§12) The LDH enzyme activity secreted in the reaction mixture was expressed as the percentage of the total enzyme activity in cells (%/total) which was the enzyme activity of LDH released upon disruption of the cells with 0.05% Triton X-100.

[5] = tested on: differentiated HL60 cells; experiment: LDH leakage from HL60 cells; conditions: differentiated HL60 cells, Example 4
Procedure: as §10, §11, §12

[6] = tested on: undifferentiated HL60 cells; experiment: Migration promoting activity (Chemotaxis Cells), undifferentiated HL60 cells; format: cell-based, human
Procedure: (§7) The migration promoting activity of each of the polypeptides of interest was measured using Chemotaxis Cells (Kurabo) as follows: The differentiated HL60 cells or undifferentiated HL60 cells were washed three times with ice-cooled HBHS and a cell suspension was prepared at a cell density of 4×10^6 cells/ml. The cell suspension was incubated at 37° C. for 10 minutes; thereafter, 500 μl of the cell suspension was transferred to Chemotaxis Cells (2×10^6 cells/Cell), which were put on a micro-well plate filled with pre-heated (37° C.) HBHS containing 1 ml of polypeptide and incubation was performed at 37° C. for 1 hour. Then, the Chemotaxis Cells were removed from the plate and the number of cells that had migrated in each well was counted.
(§8) Migration promoting activity was expressed by a chemotaxis index, or the number of cells that migrated upon stimulation was divided by the number of cells migrated without stimuli.
The activity of the human homologues of COSP-1 and fCyt b (1-15) for promoting β-HA secretion and migration promoting activities were measured following the methods described in Examples 4 and 5, respectively. […]

[7] = tested on: differentiated HL60 cells; experiment: Migration promoting activity (Chemotaxis Cells), differentiated HL60 cells; format: cell-based, human; conditions: for activity for migration at the concentrations where β-HA secretion was observed / concentrations of migration activity relative to the concentration for β-HA secretion: Example 12
Procedure: as §7, §8
(§9) The activity of the human homologues of COSP-1 and fCyt b (1-15) for promoting β-HA secretion and migration promoting activities were measured following the methods described in Examples 4 and 5, respectively. The activity for β-HA secretion was expressed by the percentage for the maximum amount of secretion upon stimulation with 10 μM of fMLP, whereas the activity for migration was expressed by a chemotaxis index, i.e., the ratio of the number of stimulated migrating cells to that of unstimulated migrating cells.

[8] = tested on: undifferentiated HL60 cells; experiment: β-HA secretion from undifferentiated HL60 cells (Example 12); format: cell-based, human; conditions: data not shown
Procedure: as §9

Compound	activity of promoting β-HA secretion [3]	activity for β-HA secretion compared with COSP-1 and fCyt b (1-15) [3]	β-HA secretion from differentiated HL60 cells (%/total) [3]	migration promoting activity [6]	migration promoting (attracting) activity [7]	activity for migration at the concentrations where β-HA secretion was observed [7]	concentrations of migration activity relative to the concentration for β-HA secretion [7]	activity of promoting β-HA secretion [8]	other results
Nc1ncnc2c1ncn2[C@@H]1O[C@H](COP(=O)(O)OP(=O)(O)OP(=O)(O)O)[C@@H](O)[C@H]1O [ATP]									intracellular Ca2+ concentration [1]: increased; intracellular Ca2+ concentration [2]: increased
CC[C@H](C)[C@H](NC(=O)[C@H](CC(N)=O)NC(=O)[C@@H](NC(=O)[C@H](CCSC)NC=O)[C@@H](C)O)C(=O)N[C@@H](CCCNC(=N)N)C(=O)N[C@@H](CCCCN)C(=O)N[C@@H](CO)C(=O)N[C@@H](Cc1c[nH]cn1)C(=O)N1CCC[C@H]1C(=O)N[C@@H](CC(C)C)C(=O)N[C@@H](CCSC)C(=O)N[C@@H](CCCCN)C(=O)N[C@H](C(=O)N[C@H](C(=O)N[C@@H](CC(N)=O)C(=O)O)[C@@H](C)CC)[C@@H](C)CC [fCyt b (1-15), fMet-Thr-Asn-Ile-Arg-Lys-Ser-His-Pro-Leu-Met-Lys-Ile-Ile-Asn] (For-MTNIRKSHPLMKIIN-OH)									EC50 [3]: 38 ± 3.4 nM
CC[C@H](C)[C@H](NC(=O)[C@H](CC(N)=O)NC(=O)[C@@H](NC(=O)[C@H](CCSC)NC=O)[C@@H](C)O)C(=O)N[C@@H](CCCNC(=N)N)C(=O)N[C@@H](CCCCN)C(=O)N[C@@H](CO)C(=O)N[C@@H](Cc1cnc[nH]1)C(=O)N1CCC[C@H]1C(=O)N[C@@H](CC(C)C)C(=O)N[C@@H](CCSC)C(=O)N[C@@H](CCCCN)C(=O)N[C@H](C(=O)N[C@H](C(=O)N[C@@H](CC(N)=O)C(=O)O)[C@@H](C)CC)[C@@H](C)CC [fCyt b (1-15), fMet-Thr-Asn-Ile-Arg-Lys-Ser-His-Pro-Leu-Met-Lys-Ile-Ile-Asn] (For-MTNIRKSHPLMKIIN-OH)									LDH leakage out of the cells [4]: no LDH was found to leak out
MTNIRKSHPLMKIIN [Cyt b (1-15)]									LDH leakage out of the cells [5]: no LDH was found to leak out
VTFLLPAGWILSHLETYRRPE [Human COSP-1]	showed the activity	comparable	53.5 %/total	not observed	showed the activity	desensitized	observed at concentrations lower	not observed	
fMet-Thr-Pro-Met-Arg-Lys-Ile-Asn-Pro-Leu-Met-Lys-Leu-Ile-Asn (For-MTPMRKINPLMKLIN; listed as Homo sapiens) [Human fCyt b (1-15)]	showed the activity	comparable	65.9 %/total	not observed	showed the activity	desensitized	observed at concentrations lower	not observed	
